Reference: patent US8575135B2 (Gilead Sciences, Inc., priority 2011, dated 2013)
Where two headings read alike, the source gives them in different places.

Key:
Test in all cases: microbe, parasite or virus in culture
Conditions in all cases: Hepatitis C virus
[1] = test system: stable HCV 1a RLuc replicon cells (genotype 1a H77 replicon); type: cell-based
[2] = test system: stable HCV 2a JFH-1 Rluc replicon cells (L31 present in NS5A); type: cell-based
[3] = test system: NS5A chimeric genotype 1b Con1 replicon with genotype 3a S52 strain NS5A gene; type: cell-based, HCV
Summary of the method: (§1)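 Con1 1b replicons carrying 3a S52 or 4a ED43 NS5A with Pi-RLuc reporter were transiently transfected into Huh-Lunet cells; 2b MD2b-1 NS5A (M31) in JFH-1 2a backbone with RLuc-Neo, transient or stable.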

[4] = test system: NS5A chimeric genotype 2a JFH-1 replicon with genotype 2a J6 strain NS5A gene (M31 present); type: cell-based, HCV
[5] = test system: NS5A chimeric genotype 2a JFH-1 replicon with genotype 2b MD2b-1 strain NS5A gene (M31 present); type: cell-based, HCV
Summary of the method: as §1

[6] = test system: NS5A chimeric genotype 1b Con1 replicon with genotype 4a ED43 strain NS5A gene; type: cell-based, HCV
[7] = test system: 1a Pi-Rluc replicon with Q30R in genotype 1a NS5A; type: cell-based, HCV
Description: Antiviral potency (EC50) was determined using a Renilla luciferase (RLuc)-based HCV replicon reporter assay. […] To perform the assay for genotype 2a (with M31 present in NS5A) or 2b, NS5A chimeric genotype 2a JFH-1 replicons that encodes a RLuc-Neo reporter and either genotype 2a J6 strain NS5A gene or genotype 2b MD2b-1 strain NS5A gene (both with M31 present) respectively, were either transiently transfected (t) into Huh-Lunet cells or were established as stably replicating replicon cells (s) is provided. Either cells were dispensed into 384-well plates for EC50 assays. To perform the assay for genotype 3 and 4, NS5A chimeric genotype 1b Con1 replicons that encodes a Pi-RLuc reporter and either genotype 3a S52 strain NS5A gene or genotype 4a ED43 strain NS5A gene respectively, were transiently transfected (t) into Huh-Lunet cells, which were subsequently dispensed into 384-well plates. Compounds were dissolved in DMSO at a concentration of 10 mM and diluted in DMSO either manually or using an automated pipeting instrument. Serially 3-fold diluted compounds were either manually mixed with cell culture media and added to the seeded cells or directly added to the cells using an automated instrument. […] 72 hours later, cells were lysed and Renilla luciferase activity quantified as recommended by the manufacturer (Promega-Madison, Wis.). Non-linear regression was performed to calculate EC50 values.
To determine the antiviral potency (EC50) against resistance mutants, resistance mutations, including M28T, Q30R, Q30H, L31M, and Y93C in genotype 1a NS5A and Y93H in genotype 1b NS5A, were introduced individually into either 1a Pi-Rluc or 1b Pi-Rluc replicons by site directed mutagenesis. Replicon RNA of each resistant mutant was transiently transfected into Huh-7-derived cured-51 cells and antiviral potency was determined on these transfected cells as described above.

Structure (SMILES) | EC50 ([1]; read-out: 1a) [nM] | EC50 ([1]; read-out: 1a (nM)) [nM] | EC50 ([2]; read-out: 2a JFH) [nM] | EC50 ([2]; read-out: 2a JFH (nM)) [nM] | EC50 ([3]; read-out: 3a) [nM] | EC50 ([3]; read-out: 3a (nM)) [nM] | EC50 ([4]; read-out: 2a J6) [nM] | EC50 ([4]; read-out: 2a J6 (s) (nM)) [nM] | EC50 ([4]; read-out: 2a Jb (t) (nM)) [nM] | EC50 ([5]; read-out: 2b) [nM] | EC50 ([5]; read-out: 2b (s) (nM)) [nM] | EC50 ([5]; read-out: 2b (t) (nM)) [nM] | EC50 ([6]; read-out: 4a) [nM] | EC50 ([6]; read-out: 4a (s) (nM)) [nM] | EC50 ([6]; read-out: 4a (t) (nM)) [nM] | EC50 ([7]; read-out: 1a Q30R) [nM] | EC50 ([7]; read-out: 1a Q30R (nM)) [nM]
COC(=O)N[C@H](C(=O)N1CCC[C@H]1c1nc2ccc3cc4c(cc3c2[nH]1)OCc1cc(-c2cnc([C@@H]3CCCN3C(=O)[C@H](NC(=O)C3CC3)c3ccccc3)[nH]2)ccc1-4)C(C)C [Compound 498] | < 1 | 0.03 | < 1 | 0.004 | < 1 | 0.005 | < 1 | 0.039 | 0.012 | < 1 | 0.013 | 0.01 | < 1 | 0.004 | 0.011 | < 1 | 0.04
COC(=O)N[C@H](C(=O)N1CCC[C@H]1c1ncc(-c2ccc3c(c2)COc2cc4c(ccc5nc([C@@H]6C[C@H](C)CN6C(=O)[C@@H](NC(=O)OC)C(C)C)[nH]c54)cc2-3)[nH]1)C(C)C [Compound 526] | < 1 | 0.011 | < 1 | 0.007 | < 1 | 0.018 | < 1 | 1.64 | 0.443 | < 1 | 0.404 | 0.132 | < 1 | 0.011 | 0.011 | < 1 | 0.095
COC(=O)N[C@H](C(=O)N1[C@@H]2C[C@@H]2C[C@H]1c1nc2ccc3cc4c(cc3c2[nH]1)OCc1cc(-c2cnc([C@@H]3CCCN3C(=O)[C@H](NC(=O)OC)c3ccccc3)[nH]2)ccc1-4)C(C)C [Compound 536] | < 1 | 0.008 | < 1 | 0.004 | < 1 | 0.009 | < 1 | 0.154 | 0.04 | < 1 | 0.037 | 0.011 | < 1 | 0.01 | 0.005 | < 1 | 0.048
COC(=O)N[C@H](C(=O)N1CCC[C@H]1c1ncc(-c2ccc3c(c2)COc2cc4c(ccc5nc([C@@H]6CCCN6C(=O)[C@H](NC(=O)OC)c6ccccc6)[nH]c54)cc2-3)[nH]1)[C@@H](C)OC [Compound 588] | < 1 | 0.012 | < 1 | 0.004 | < 1 | 0.027 | < 1 | 0.14 | 0.038 | < 1 | 0.017 | 0.012 | < 1 | – | 0.019 | < 1 | 0.087
COC(=O)N[C@H](C(=O)N1[C@@H](C)CC[C@H]1c1ncc(-c2ccc3c(c2)COc2cc4c(ccc5nc([C@@H]6CCCN6C(=O)[C@@H](NC(=O)OC)[C@@H](C)OC)[nH]c54)cc2-3)[nH]1)C(C)C [Compound 603] | < 1 | 0.009 | < 1 | 0.007 | < 1 | 0.015 | < 1 | – | 0.194 | < 1 | 0.088 | 0.067 | < 1 | 0.022 | – | < 1 | 0.146
COC[C@H]1C[C@@H](c2nc3ccc4cc5c(cc4c3[nH]2)OCc2cc(-c3cnc([C@@H]4CCCN4C(=O)[C@H](NC(=O)OC)c4ccccc4)[nH]3)ccc2-5)N(C(=O)[C@@H](NC(=O)OC)C(C)C)C1 [Example MM, methyl {(1R)-2-[(2S)-2-(5-{2-[(2S,4S)-1-{(2S)-2-[(methoxycarbonyl)amino]-3-methylbutanoyl}-4-(methoxymethyl)pyrrolidin-2-yl]-1,11-dihydroisochromeno[4′,3′:6,7]naphtho[1,2-d]imidazol-9-yl}-1H-imidazol-2-yl)pyrrolidin-1-yl]-2-oxo-1-phenylethyl}carbamate] | < 1 | 0.022 | < 1 | 0.007 | < 1 | 0.02 | < 1 | 0.064 | 0.018 | < 1 | 0.042 | 0.015 | < 1 | 0.016 | 0.017 | < 1 | 0.044
COC[C@@H]1C[C@@H](c2nc3ccc4cc5c(cc4c3[nH]2)OCc2cc(-c3cnc([C@@H]4CCCN4C(=O)[C@@H](NC(=O)OC)C(C)C)[nH]3)ccc2-5)N(C(=O)[C@H](NC(=O)OC)c2ccccc2)C1 [Example MQ, methyl{(1R)-2-[(2S,4R)-2-(9-{2-[(2S)-1-{(2S)-2-[(methoxycarbonyl)amino]-3-methylbutanoyl}pyrrolidin-2-yl)-1H-imidazol-5-yl]-1,11-dihydroisochromeno[4′,3′:6,7]naphtho[1,2-d]imidazol-2-yl}-4-(methoxymethyl)pyrrolidin-1-yl]-2-oxo-phenylethyl}carbamate] | < 1 | 0.008 | < 1 | 0.004 | < 1 | 0.016 | < 1 | 0.095 | 0.017 | < 1 | 0.023 | 0.009 | < 1 | – | 0.011 | < 1 | 0.023
COC[C@H]1C[C@@H](c2nc3c([nH]2)-c2cc4c(cc2CC3)-c2ccc(-c3cnc([C@@H]5CCCN5C(=O)[C@@H](NC(=O)OC)C(C)C)[nH]3)cc2CO4)N(C(=O)[C@H](NC(=O)OC)c2ccccc2)C1 [Example MR, methyl{(1R)-2-[(2S,4S)-2-(9-{2-[(2S)-1-{(2S)-2-[(methoxycarbonyl)amino]-3-methylbutanoyl}pyrrolidin-2-yl)-1H-imidazol-5-yl]-1,11-dihydroisochromeno[4′,3′:6,7]-4,5-dihydro-naphtho[1,2-d]imidazol-2-yl}-(methoxymethyl)pyrrolidin-1-yl]-2-oxo-1-phenylethyl}carbamate] | < 1 | 0.028 | < 1 | 0.017 | < 1 | 0.078 | < 1 | 0.176 | 0.079 | < 1 | 0.053 | 0.039 | < 1 | – | 0.045 | < 1 | 0.128
COC[C@H]1C[C@@H](c2ncc(-c3ccc4c(c3)COc3cc5c(ccc6nc([C@@H]7CCCN7C(=O)[C@@H](NC(=O)OC)C(C)C)[nH]c65)cc3-4)[nH]2)N(C(=O)[C@H](NC(=O)OC)c2ccccc2)C1 [Example MU, methyl{(1R)-2-[(2S,4S)-2-(5-{2-[(2S)-1-{(2S)-2-[(methoxycarbonyl)amino]-3-methylbutanoyl}-pyrrolidin-2-yl]-1,11-dihydroisochromeno[4′,3′:6,7]naphtho[1,2-d]imidazol-9-yl}-1H-imidazol-2-yl)-4-(methoxymethyl)pyrrolidin-1-yl]-2-oxo-1-phenylethyl}carbamate] | < 1 | 0.008 | < 1 | 0.004 | < 1 | 0.017 | < 1 | 0.046 | 0.013 | < 1 | 0.025 | 0.009 | < 1 | – | 0.011 | < 1 | 0.023
